The target of series [1] is Sodium-dependent dopamine transporter (Homo sapiens, UniProt Q01959). Nature of the series: Displacement of radioligand from human recombinant DAT expressed in HEK293 cells by scintillation proximity assay. It counts as cell-based. (In general: SPA uses beads or plates that emit light when radiolabelled molecules are held near them.)
The target of series [2] is Sodium-dependent serotonin transporter (Homo sapiens, UniProt P31645). Nature of the series: Displacement of [3H]citalopram from human recombinant SERT expressed in HEK293 cells by scintillation proximity assay. It counts as cell-based. For orientation: Loss of bound radioactivity is the signal in a displacement assay; it reports binding, not function.
Sodium-dependent serotonin transporter, sequence (P31645 whole entry): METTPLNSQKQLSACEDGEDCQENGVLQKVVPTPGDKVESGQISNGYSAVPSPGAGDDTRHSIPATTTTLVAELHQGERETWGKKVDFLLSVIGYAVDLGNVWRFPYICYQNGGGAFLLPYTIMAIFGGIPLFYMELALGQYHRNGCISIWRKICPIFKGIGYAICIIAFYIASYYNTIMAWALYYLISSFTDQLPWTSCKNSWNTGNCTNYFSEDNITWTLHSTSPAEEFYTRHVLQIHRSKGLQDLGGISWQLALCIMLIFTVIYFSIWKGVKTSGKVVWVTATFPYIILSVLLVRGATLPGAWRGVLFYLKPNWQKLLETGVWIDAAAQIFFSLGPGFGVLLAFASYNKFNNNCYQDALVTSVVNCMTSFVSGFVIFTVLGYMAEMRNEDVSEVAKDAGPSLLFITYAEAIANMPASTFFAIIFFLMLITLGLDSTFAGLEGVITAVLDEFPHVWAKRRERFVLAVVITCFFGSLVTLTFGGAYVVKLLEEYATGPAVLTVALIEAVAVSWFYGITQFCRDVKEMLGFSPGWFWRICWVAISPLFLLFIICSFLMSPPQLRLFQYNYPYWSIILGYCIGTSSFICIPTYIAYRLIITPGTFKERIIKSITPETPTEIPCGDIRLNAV
The target of series [3] is Sodium-dependent noradrenaline transporter (Homo sapiens, UniProt P23975). Nature of the series: Displacement of [3H]nisoxetine from human recombinant NET expressed in HEK293 cells by scintillation proximity assay. Format: cell-based.
Sodium-dependent noradrenaline transporter, sequence (P23975 whole entry): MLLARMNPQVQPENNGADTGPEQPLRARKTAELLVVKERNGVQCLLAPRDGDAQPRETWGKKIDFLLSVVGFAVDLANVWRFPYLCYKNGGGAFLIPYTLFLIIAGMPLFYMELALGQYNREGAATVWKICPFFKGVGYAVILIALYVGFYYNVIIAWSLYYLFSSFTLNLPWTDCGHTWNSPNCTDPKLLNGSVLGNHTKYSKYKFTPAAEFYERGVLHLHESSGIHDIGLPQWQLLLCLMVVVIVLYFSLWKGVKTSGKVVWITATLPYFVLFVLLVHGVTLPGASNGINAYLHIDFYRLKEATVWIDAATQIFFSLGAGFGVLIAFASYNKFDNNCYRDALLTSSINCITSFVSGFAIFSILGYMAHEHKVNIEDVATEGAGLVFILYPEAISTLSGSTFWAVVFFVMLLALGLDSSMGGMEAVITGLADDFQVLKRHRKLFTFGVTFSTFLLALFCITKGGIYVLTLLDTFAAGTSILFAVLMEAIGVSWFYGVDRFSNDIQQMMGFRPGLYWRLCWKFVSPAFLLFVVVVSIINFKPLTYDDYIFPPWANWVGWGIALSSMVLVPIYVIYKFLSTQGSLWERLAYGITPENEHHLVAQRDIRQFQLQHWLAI
Series [4] concerns the target Voltage-gated inwardly rectifying potassium channel KCNH2 (Homo sapiens, UniProt Q12809). Nature of the series: Displacement of [3H]dofetilide from human ERG.
Series [5] can be described thus: Intrinsic clearance in human liver microsomes. It counts as ADME, Microsome.
Series [6] concerns the target Cytochrome P450 2D6 (Homo sapiens, UniProt P10635). In words: Inhibition of CYP2D6. Format: ADME.

Voltage-gated inwardly rectifying potassium channel KCNH2, sequence (Q12809 whole entry): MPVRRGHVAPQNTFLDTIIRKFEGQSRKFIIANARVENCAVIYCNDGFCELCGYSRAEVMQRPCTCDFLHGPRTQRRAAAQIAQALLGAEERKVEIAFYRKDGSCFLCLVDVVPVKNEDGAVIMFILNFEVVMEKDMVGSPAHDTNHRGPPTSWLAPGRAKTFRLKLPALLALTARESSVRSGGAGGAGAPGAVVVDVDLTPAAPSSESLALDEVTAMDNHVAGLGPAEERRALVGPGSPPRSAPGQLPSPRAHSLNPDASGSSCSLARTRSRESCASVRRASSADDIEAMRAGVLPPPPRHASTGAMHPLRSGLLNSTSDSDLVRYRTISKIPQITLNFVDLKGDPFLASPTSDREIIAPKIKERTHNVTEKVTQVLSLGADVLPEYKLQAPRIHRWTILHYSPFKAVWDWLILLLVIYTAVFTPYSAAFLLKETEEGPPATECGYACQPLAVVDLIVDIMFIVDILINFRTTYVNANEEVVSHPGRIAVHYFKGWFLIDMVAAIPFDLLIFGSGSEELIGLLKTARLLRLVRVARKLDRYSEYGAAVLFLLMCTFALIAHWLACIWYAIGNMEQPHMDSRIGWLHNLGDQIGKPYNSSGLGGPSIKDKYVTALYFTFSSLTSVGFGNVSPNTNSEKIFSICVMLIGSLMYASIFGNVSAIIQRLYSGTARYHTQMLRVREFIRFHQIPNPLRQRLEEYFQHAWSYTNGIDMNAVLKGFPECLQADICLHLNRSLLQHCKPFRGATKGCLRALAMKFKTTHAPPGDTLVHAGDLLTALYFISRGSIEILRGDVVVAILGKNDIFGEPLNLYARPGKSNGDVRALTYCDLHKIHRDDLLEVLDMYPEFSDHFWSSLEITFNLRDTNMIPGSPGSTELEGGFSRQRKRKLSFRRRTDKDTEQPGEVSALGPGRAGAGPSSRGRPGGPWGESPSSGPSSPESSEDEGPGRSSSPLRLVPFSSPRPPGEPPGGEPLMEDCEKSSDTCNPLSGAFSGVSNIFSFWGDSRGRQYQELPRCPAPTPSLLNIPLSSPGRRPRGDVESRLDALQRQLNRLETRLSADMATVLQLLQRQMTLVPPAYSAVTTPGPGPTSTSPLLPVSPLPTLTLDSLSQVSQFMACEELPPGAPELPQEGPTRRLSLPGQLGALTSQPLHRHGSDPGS
Cytochrome P450 2D6, sequence (P10635 whole entry): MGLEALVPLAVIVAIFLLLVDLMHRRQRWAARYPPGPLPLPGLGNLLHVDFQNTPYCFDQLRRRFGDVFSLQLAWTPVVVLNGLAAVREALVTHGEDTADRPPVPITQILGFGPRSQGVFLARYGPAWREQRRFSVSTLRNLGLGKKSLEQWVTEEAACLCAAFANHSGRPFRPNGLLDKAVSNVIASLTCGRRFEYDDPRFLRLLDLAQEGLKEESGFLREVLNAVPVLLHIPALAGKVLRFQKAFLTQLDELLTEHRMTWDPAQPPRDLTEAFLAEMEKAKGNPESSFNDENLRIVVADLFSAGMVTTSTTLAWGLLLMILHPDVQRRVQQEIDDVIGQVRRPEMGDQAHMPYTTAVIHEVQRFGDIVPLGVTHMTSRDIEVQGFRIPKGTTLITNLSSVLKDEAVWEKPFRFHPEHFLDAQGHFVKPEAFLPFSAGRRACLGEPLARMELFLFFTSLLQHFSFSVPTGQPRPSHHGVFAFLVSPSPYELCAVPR
Sodium-dependent dopamine transporter, sequence (Q01959 whole entry): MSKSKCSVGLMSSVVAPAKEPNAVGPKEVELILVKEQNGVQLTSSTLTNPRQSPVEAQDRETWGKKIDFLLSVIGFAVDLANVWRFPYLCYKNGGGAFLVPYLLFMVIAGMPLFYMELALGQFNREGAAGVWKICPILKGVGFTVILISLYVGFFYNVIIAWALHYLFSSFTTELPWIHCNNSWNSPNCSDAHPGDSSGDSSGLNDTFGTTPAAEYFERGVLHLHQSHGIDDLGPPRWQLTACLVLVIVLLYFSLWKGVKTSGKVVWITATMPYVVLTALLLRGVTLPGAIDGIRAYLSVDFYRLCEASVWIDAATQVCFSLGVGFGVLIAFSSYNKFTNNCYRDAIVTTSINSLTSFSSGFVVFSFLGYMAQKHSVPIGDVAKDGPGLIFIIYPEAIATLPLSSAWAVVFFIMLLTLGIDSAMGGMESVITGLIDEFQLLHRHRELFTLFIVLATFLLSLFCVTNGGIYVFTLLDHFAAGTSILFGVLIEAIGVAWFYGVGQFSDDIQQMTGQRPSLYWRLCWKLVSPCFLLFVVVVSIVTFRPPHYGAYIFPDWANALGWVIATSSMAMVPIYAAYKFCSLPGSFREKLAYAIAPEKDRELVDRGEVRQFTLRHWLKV

The Ki is the equilibrium dissociation constant of an inhibitor or competing ligand from its target. The IC50 is the midpoint of a concentration-inhibition curve. A lower IC50 goes with greater potency. By microsomal CLint is commonly meant the rate of metabolic loss divided by the concentration. A high value points to faster metabolism. As for `CCOc1ccccc1C(=O)N(CC1CCC1)[C@H]1CCNC1`, the Ki was 2650 nM in series [1], 348 nM in series [2] and 22 nM in series [3]. The compound further returned an IC50 in series [4] greater than 16800 nM. The compound further displayed a microsomal CLint in series [5] of less than 7 µL/min/mg.
In series [4], `CC(C)C(=O)N(Cc1ccccc1-c1ccccc1)[C@H]1CCNC1` registered an IC50 of 3020 nM.
Compound `CNCc1cnc(C)cc1Oc1ccccc1Oc1ccccc1` came in with an IC50 in series [4] of 11200 nM. Moreover, the intrinsic clearance (microsomal CLint) in series [5] was less than 7 µL/min/mg.
Turning to `CN(C(=O)c1ccccc1Oc1ccccc1)[C@H]1CCNC1`, the Ki in series [1] was greater than 3160 nM; in series [2], 661 nM; in series [3], 61 nM. For the same compound, the 50% inhibitory concentration (IC50) in series [4] was 9210 nM.
For `Cc1ccccc1C(=O)N(CC1CCC1)[C@H]1CCNC1` the same measures were 2340 nM, 118 nM, 72 nM and greater than 20000 nM.
`CC(C)c1ccccc1C(=O)N(C1CCC1)[C@H]1CCNC1`: the Ki in series [1] is greater than 10000 nM; in series [2], 776 nM; in series [3] it was 43 nM.
`CSc1ccccc1C(=O)N(C1CCCCC1)[C@H]1CCNC1`: the Ki in series [1] is 2950 nM; in series [2], 16 nM. In series [4], the IC50 turned out to be 2270 nM.
With `O=C(c1ccccc1Oc1ccccc1)N(CC1CCC1)[C@@H]1CCNC1`, the Ki in series [1] came to 4100 nM; in series [2] it was 587 nM; in series [3] it was 38 nM. In series [5], this compound yielded a microsomal CLint of less than 8 µL/min/mg.
As for `O=C(c1ccccc1C1CCCC1)N(CC1CCC1)[C@H]1CCNC1`, the results for the Ki in series [1], in series [2] and in series [3] were 3720 nM, 802 nM and 18 nM, respectively. Further, the intrinsic metabolic clearance (microsomal CLint) in series [5] stood at 60 µL/min/mg.
On the same counts, the results for `CC(C)CN(C(=O)c1ccccc1Oc1ccccc1)[C@H]1CCNC1` are greater than 10000 nM, 160 nM, 8 nM and less than 7 µL/min/mg.
With `O=C(c1ccccc1Cl)N(CC1CCC1)[C@H]1CCNC1`, the Ki was 1360 nM in series [1], 39 nM in series [2] and 19 nM in series [3].
Consider `O=C(c1ccccc1Oc1ccccc1)N(C1CCC1)[C@H]1CCNC1`, for which the Ki in series [1] is greater than 10000 nM; in series [2] it was 222 nM; in series [3] it was 13 nM. For the same compound, in series [5], the microsomal CLint is less than 7 µL/min/mg.
In the case of `CC(C)c1ccccc1C(=O)N(CC1CC1)[C@H]1CCNC1`, the Ki was greater than 10000 nM in series [1], 2870 nM in series [2] and 31 nM in series [3]. Besides, the IC50 in series [4] is greater than 17600 nM.
Turning to `CCSc1ccccc1C(=O)N(CC1CCC1)[C@H]1CCNC1`, the Ki in series [1] was 3670 nM; in series [2], 266 nM; in series [3] it was 6 nM. The figures for the IC50 in series [4] and in series [6] were 7570 nM and 480 nM, respectively. In series [5], this compound yielded a microsomal CLint of 8 µL/min/mg.
In the case of `CSc1ccccc1C(=O)N(C1CCC1)[C@H]1CCNC1`, the inhibition constant Ki in series [1] was greater than 10000 nM; in series [2] it was 62 nM; in series [3], 16 nM. The concentration for half-maximal inhibition (IC50) was greater than 20000 nM in series [4] and greater than 30000 nM in series [6]. Moreover, in series [5], the intrinsic metabolic clearance (microsomal CLint) was less than 7 µL/min/mg.
For the compound `O=C(c1ccccc1C(F)(F)F)N(CC1CC1)[C@H]1CCNC1`, the Ki in series [1] was greater than 10000 nM; in series [2] it was 581 nM; in series [3], 30 nM. Besides, the IC50 in series [4] was greater than 20000 nM.
Take `CC(C)c1ccccc1C(=O)N(CC1CCC1)[C@H]1CCNC1`: the Ki came to 2040 nM in series [1], 857 nM in series [2] and 10 nM in series [3]. Moreover, the IC50 is greater than 18200 nM in series [4] and 3170 nM in series [6]. In series [5], the microsomal CLint was less than 9 µL/min/mg.
For the compound `O=C(c1ccccc1C(F)(F)F)N(C1CCC1)[C@H]1CCNC1`, the values for the Ki in series [1], in series [2] and in series [3] were greater than 10000 nM, 210 nM and 60 nM, respectively. Further, the IC50 in series [4] is greater than 10000 nM. The same compound gave an intrinsic clearance (microsomal CLint) in series [5] of less than 7 µL/min/mg.
As for `CC(C)CN(C(=O)c1ccccc1-c1ccccc1)[C@H]1CCNC1`, the inhibition constant Ki is greater than 10000 nM in series [1], 654 nM in series [2] and 294 nM in series [3]. Besides, in series [4], the 50% inhibitory concentration (IC50) is 1440 nM.
On the same counts, the results for `CSc1ccccc1C(=O)N(C1CCCC1)[C@H]1CCNC1` are 4770 nM, 36 nM, 9 nM and greater than 18700 nM.
`CCOC(=O)N(Cc1ccccc1-c1ccccc1)[C@H]1CCNC1` showed a microsomal CLint in series [5] of less than 7 µL/min/mg.
For `CSc1ccccc1C(=O)N(c1ccccc1)[C@H]1CCNC1`, the Ki came to 3440 nM in series [1], 64 nM in series [2] and 19 nM in series [3]. In series [4], this compound gave an IC50 greater than 20000 nM.
In the case of `CC(C)c1ccccc1C(=O)N(CC1CCCC1)[C@H]1CCNC1`, the results for the Ki in series [1], in series [2] and in series [3] were 3470 nM, 330 nM and 18 nM, respectively. In series [4], this compound yielded an IC50 of 2350 nM.
On the same counts, the results for `CC(C)N(C(=O)c1ccccc1C(F)(F)F)[C@H]1CCNC1` are greater than 10000 nM, 457 nM, 172 nM and greater than 20000 nM.
Regarding `CCCN(C(=O)c1ccccc1C(C)C)[C@H]1CCNC1`, the inhibition constant (Ki) in series [1] is greater than 10000 nM; in series [2], 5210 nM; in series [3], 92 nM.
Regarding `CCN(C(=O)c1ccccc1Oc1ccccc1)[C@H]1CCNC1`, the Ki in series [1] was determined as 3570 nM; in series [2] it was 1610 nM; in series [3], 9 nM. In addition, the IC50 in series [4] is 5030 nM; in series [6], greater than 30000 nM. For the same compound, in series [5], the microsomal CLint was less than 7 µL/min/mg.
Consider `CCc1ccccc1C(=O)N(CC1CCC1)[C@H]1CCNC1`, for which the Ki in series [1] came out at 2680 nM; in series [2], 237 nM; in series [3], 29 nM.
Consider `CSc1ccccc1C(=O)N(CC1CCC1)[C@@H]1CCNC1`, for which the inhibitory constant (Ki) stood at 3470 nM in series [1], 1080 nM in series [2] and 572 nM in series [3].
For the compound `CC(C)c1ccccc1C(=O)N(C1CCCC1)[C@H]1CCNC1`, the Ki was greater than 10000 nM in series [1], 663 nM in series [2] and 32 nM in series [3].
On the same counts, the results for `O=C(c1ccccc1C(F)(F)F)N(CC1CCC1)[C@@H]1CCNC1` are 3960 nM, 1650 nM and 1120 nM.
For the compound `CSc1ccccc1C(=O)N(CC1CCC1)[C@H]1CCNC1`, the Ki in series [1] came to 3040 nM; in series [2], 179 nM; in series [3] it was 8 nM. In series [4], this compound had an IC50 greater than 20000 nM. Moreover, the microsomal CLint in series [5] was less than 7 µL/min/mg.
`O=C(c1ccccc1C(F)(F)F)N(c1ccccc1)[C@H]1CCNC1`: the Ki in series [1] is 3130 nM; in series [2], 113 nM; in series [3], 28 nM. Moreover, the IC50 in series [4] was greater than 20000 nM; in series [6] it was greater than 3000 nM. The microsomal CLint in series [5] was less than 7 µL/min/mg.
Regarding `O=C(c1ccccc1C(F)(F)F)N(CC1CCCC1)[C@H]1CCNC1`, the inhibitory constant (Ki) in series [1] worked out at 2750 nM; in series [2], 109 nM; in series [3] it was 24 nM. Further, in series [4], the IC50 is greater than 13500 nM. The compound also displayed a microsomal CLint in series [5] of less than 7 µL/min/mg.
In the case of `O=C(c1ccccc1Oc1ccccc1)N(c1ccccc1)[C@H]1CCNC1`, the values for the Ki in series [1] and in series [2] were 4650 nM and 68 nM, respectively. Further, the microsomal CLint in series [5] was less than 7 µL/min/mg.
For `O=C(C1CCC1)N(Cc1ccccc1C(F)(F)F)[C@H]1CCNC1`, the Ki in series [1] was greater than 10000 nM; in series [2], 187 nM; in series [3], 148 nM. The compound further showed a microsomal CLint in series [5] of less than 7 µL/min/mg.
Turning to `O=C(c1ccccc1Oc1ccccc1)N(CC1CCC1)[C@H]1CCNC1`, the Ki in series [1] is greater than 10000 nM; in series [2] it was 151 nM; in series [3], 7 nM. Besides, the IC50 was determined as 760 nM in series [4] and 65 nM in series [6]. In series [5], this compound had a microsomal CLint of less than 7 µL/min/mg.
For the compound `CCCN(C(=O)c1ccccc1SC)[C@H]1CCNC1`, the inhibition constant (Ki) in series [1] turned out to be 3110 nM; in series [2] it was 1090 nM; in series [3], 37 nM. In series [4], the IC50 is greater than 20000 nM.
Turning to `CC(C)c1ccccc1C(=O)N(CC1CCC1)[C@@H]1CCNC1`, the Ki was greater than 3160 nM in series [1], 1990 nM in series [2] and 825 nM in series [3].

These data come from ChEMBL document CHEMBL1153484, “Design, synthesis and evaluation of N-[(3S)-pyrrolidin-3-yl]benzamides as selective noradrenaline reuptake inhibitors: CNS penetration in a more polar template” (Bioorg Med Chem Lett, 2009).
